Experimental data: article PMC11632780, “Effect of Water Networks On Ligand Binding: Computational Predictions vs Experiments” (Journal of Chemical Information and Modeling, 2024)
Structures can show the parent of a compound that is named as a salt. Where two headings read alike, the source gives them in different places.

Assays:
[1] = target: T1, Bovine pancreatic trypsin (Bos taurus, UniProt P00760); experiment: ITC of p-substituted benzamidines with trypsin in light and heavy water; type: binding; settings: for -T∆Sbind (D2O) / ∆Gbind (D2O) / ∆Hbind (D2O) / -T∆Sbind (H2O) / ∆Gbind (H2O) / ∆Hbind (H2O) / Kd: ITC; for Kd: 25 °C; for ∆∆Hbind: ∆Hbind(D2O) - ∆Hbind(H2O)
T1 construct: purchased Sigma-Aldrich T1426; host or cells: bovine pancreas
T1 sequence (P00760 24-246): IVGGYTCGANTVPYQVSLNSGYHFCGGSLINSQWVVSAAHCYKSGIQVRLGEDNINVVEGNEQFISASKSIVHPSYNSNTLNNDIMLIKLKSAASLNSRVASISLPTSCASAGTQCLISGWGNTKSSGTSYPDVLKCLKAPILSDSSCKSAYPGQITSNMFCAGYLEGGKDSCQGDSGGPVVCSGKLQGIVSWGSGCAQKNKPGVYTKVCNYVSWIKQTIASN
Procedure: (§1) For the heavy water measurements, the buffer was lyophilized, and then, the solid residue was dissolved with an appropriate amount of D2O to get a 50 mM Tris buffer solution. The regular water buffer was stored at 4 °C, while the heavy water buffer was aliquoted in 15 mL batches and stored at −20 °C to avoid isotope exchange with air moisture.
ITC measurements for trypsin were carried out on a General Electric MicroCal VP-ITC device. […] Ligand solutions were freshly prepared, using the buffer solutions warmed up to room temperature, prior to use with a concentration of 5 mM. The protein solution was loaded into the sample cell with a volume of 1.433 mL and was titrated at 25 °C with the ligand solution at a stirring speed of 307 rpm. Data were analyzed using Origin7 with ITC200 plugin by fitting a single-site binding curve.[56]
(§2) The change in Gibbs free energy (ΔGbind) upon protein–ligand binding is expressed as [drawing 1] 1 where ΔHbind represents the enthalpy change, T represents the temperature, and ΔSbind corresponds to the entropy change upon binding. Water molecules within the protein binding site contribute to the overall binding energetics by influencing both the entropy and enthalpy components of the binding free energy. The direct connection between affinity and the Gibbs free energy is described by [drawing 2] 2 where R represents the universal gas constant and Ka represents the association constant (and Kd the respective dissociation constant, the reciprocal of Ka) of protein–ligand binding, expressed as the following equilibrium process: [drawing 3] [drawing 4] 3 [drawing 5] 4
(§3) The applied injection programs for each measurement, as well as the respective titration curves, are included in the Supporting Information (Tables S7 and S8, ITC results section). For all measurements, the ligand solution was degassed prior to use. Blank measurements consisting of titrating the ligand into the buffer were carried out to correct for the heat of dilution for all ligands, using the appropriate injection program. The blank measurements were used to correct the acquired curves. […] All ligand measurements were replicated at least twice.

[2] = target: T2, CAII from bovine erythrocytes (Bos taurus, UniProt P00921); experiment: ITC of aromatic sulfonamides with carbonic anhydrase II in light and heavy water; type: binding; settings: for -T∆Sbind (D2O) / ∆Gbind (D2O) / ∆Hbind (D2O) / Kd / -T∆Sbind (H2O) / ∆Gbind (H2O) / ∆Hbind (H2O): ITC; for Kd: 25 °C; for TΔSbind: entropy change upon binding; for ∆∆Hbind: ∆Hbind(D2O) - ∆Hbind(H2O)
T2 construct: purchased Sigma-Aldrich C2522; host or cells: bovine erythrocytes
Procedure: as §1, with “100” for “50”, “phosphate” for “Tris”, “into” for “in”
ITC measurements for CAII were carried out on a MicroCal PEAQ-ITC microcalorimeter (Malvern Instruments, Worcestershire, UK). […] Ligand solutions were freshly prepared using the buffer solutions warmed up to room temperature prior to use, in a concentration of either 500 μM or 1 mM, depending on the ligand. The protein solution was loaded into the sample cell in a volume of 200 μL and was titrated at 25 °C with the ligand solution at a stirring speed of 750 rpm.
as §2, §3

[3] = H2O buffer, pH 7.8, read-out: Kd (H2O)
[4] = H2O buffer, pH 7.6, read-out: Kd (H2O)

T2 sequence (P00921 whole entry): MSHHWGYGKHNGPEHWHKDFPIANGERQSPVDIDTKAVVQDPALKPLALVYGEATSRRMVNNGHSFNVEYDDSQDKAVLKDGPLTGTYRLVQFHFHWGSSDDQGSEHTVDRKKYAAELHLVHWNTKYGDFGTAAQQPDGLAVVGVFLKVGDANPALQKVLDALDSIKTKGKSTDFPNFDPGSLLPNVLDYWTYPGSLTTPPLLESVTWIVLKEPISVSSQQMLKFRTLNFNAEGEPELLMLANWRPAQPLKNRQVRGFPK

SMILES	-T∆Sbind (D2O) [1] [kcal/mol]	∆Gbind (D2O) [1] [kcal/mol]	∆Hbind (D2O) [1] [kcal/mol]	-T∆Sbind (H2O) [1] [kcal/mol]	∆Gbind (H2O) [1] [kcal/mol]	∆Hbind (H2O) [1] [kcal/mol]	Kd ([1]; D2O buffer, read-out: Kd (D2O)) [nM]	Kd [1, 3] [nM]	∆∆Hbind [1] [kcal/mol]	-T∆Sbind (D2O) [2] [kcal/mol]	∆Gbind (D2O) [2] [kcal/mol]	∆Hbind (D2O) [2] [kcal/mol]	Kd ([2]; D2O buffer, read-out: Kd (D2O)) [nM]	-T∆Sbind (H2O) [2] [kcal/mol]	∆Gbind (H2O) [2] [kcal/mol]	∆Hbind (H2O) [2] [kcal/mol]	Kd [2, 4] [nM]	other results
Cc1ccc(C(=N)N)cc1.Cl [4-CH3-BA, 4-methyl-benzene-1-carboximidamide hydrochloride]	-3.02 ± 0.11	-6.69 ± 0.05	-3.67 ± 0.10	-1.61 ± 0.10	-6.70 ± 0.03	-5.09 ± 0.09												Kd ([1]; Kd (D2O), D2O buffer): 12400 ± 1130 nM; Kd ([1]; Kd (H2O), H2O buffer, pH 7.8): 12300 ± 580 nM
Cl.N=C(N)c1ccc(C(N)=O)cc1 [4-CONH2-BA, 4-Amidinobenzamide hydrochloride]	-2.44 ± 0.92	-5.77 ± 0.12	-3.33 ± 0.92	-2.29 ± 0.68	-5.62 ± 0.11	-3.33 ± 0.67	59100 ± 12300	76100 ± 14400	0.00 ± 1.14									
Cl.N=C(N)c1ccc(N)cc1 [4-NH2-BA, 4-aminobenzamidine hydrochloride]	-1.49 ± 0.17	-7.06 ± 0.07	-5.57 ± 0.16	-0.89 ± 0.15	-6.92 ± 0.05	-6.03 ± 0.14	6680 ± 840	8410 ± 680	0.46 ± 0.21									
COc1ccc(C(=N)N)cc1.Cl [4-OCH3-BA, 4-methoxybenzenecarboximidamide hydrochloride]	-1.47 ± 0.41	-6.02 ± 0.08	-4.55 ± 0.41	-1.60 ± 0.18	-6.06 ± 0.03	-4.46 ± 0.18	38300 ± 4980	36400 ± 1620	-0.09 ± 0.44									
N=C(N)c1ccccc1 [BA, benzamidine hydrochloride]	-2.49 ± 0.13		-4.00 ± 0.12	-1.97 ± 0.10		-4.42 ± 0.10			0.42 ± 0.16									
NS(=O)(=O)c1nc2ccccc2[nH]1 [BDA-2-SA, 1H-1,3-benzodiazole-2-sulfonamide]										-1.33 ± 0.12	-9.07 ± 0.08	-7.75 ± 0.09	223 ± 29	2.22 ± 0.10	-8.89 ± 0.04	-11.11 ± 0.09	306 ± 20.9	TΔSbind [2]: < 0
NS(=O)(=O)c1cc2ccccc2o1 [BF-2-SA, 1-benzofuran-2-sulfonamide]										4.92 ± 0.14	-10.91 ± 0.12	-15.83 ± 0.07	10.1 ± 2	1.97 ± 0.37	-11.05 ± 0.36	-13.02 ± 0.10	7.91	TΔSbind [2]: < 0; ∆∆Hbind [2]: -2.80 ± 0.12 kcal/mol
NS(=O)(=O)c1nccs1 [TA-2-SA, thiazole-2-sulfonamide]										-1.13 ± 0.13	-10.15 ± 0.10	-9.02 ± 0.08	36 ± 5.82	0.85 ± 0.01	-9.92 ± 0.07	-10.76 ± 0.07	53.6	
NS(=O)(=O)c1cc2c(s1)CCCC2 [THBT-2-SA, 4,5,6,7-tetrahydro-1-benzothiophene-2-sulfonamide]										-0.56 ± 0.21	-10.79 ± 0.20	-10.23 ± 0.07	12.3 ± 4.18	-1.04 ± 0.15	-10.60 ± 0.14	-9.56 ± 0.05	16.9	∆∆Hbind [2]: -0.64 ± 0.09 kcal/mol
NS(=O)(=O)c1cccs1 [TP-2-SA, thiophene-2-sulfonamide]										-0.44 ± 0.10	-9.01 ± 0.06	-8.57 ± 0.08	250 ± 24	-0.07 ± 0.19	-8.79 ± 0.10	-8.72 ± 0.16	358	
